Assay results taken from US11369655B2, “Healthful supplements” (priority 2015, dated 2022).
Converted amounts (≈) assume the structure as drawn.

Legend:
[1] = crystalline form at −20° C.; cited from earlier work
[2] = target: peripheral cannabinoid receptor type 2 (CB2) (Homo sapiens, UniProt P34972); conditions: cited from earlier work
[3] = target: cannabinoid receptor type 1 (CB1) (Homo sapiens, UniProt P21554); conditions: cited from earlier work
[4] = cited from earlier work
[5] = Acute oral toxicity (LD50) in rats; format: in vivo, rat
[6] = cited from earlier work; remark: listed apart in the source
[7] = vapor phase, estimated, cited from earlier work

peripheral cannabinoid receptor type 2 (CB2), sequence (P34972 whole entry, species assumed): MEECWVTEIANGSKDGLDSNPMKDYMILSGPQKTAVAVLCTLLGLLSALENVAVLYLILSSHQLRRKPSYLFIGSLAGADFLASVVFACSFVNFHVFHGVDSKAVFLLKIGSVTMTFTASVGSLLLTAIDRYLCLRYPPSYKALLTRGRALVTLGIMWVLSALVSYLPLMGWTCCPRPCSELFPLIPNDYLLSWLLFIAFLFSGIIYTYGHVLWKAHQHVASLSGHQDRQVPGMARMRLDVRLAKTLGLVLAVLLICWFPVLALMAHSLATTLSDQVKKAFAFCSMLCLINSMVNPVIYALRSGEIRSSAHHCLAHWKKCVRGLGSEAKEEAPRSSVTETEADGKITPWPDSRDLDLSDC
cannabinoid receptor type 1 (CB1), sequence (P21554 whole entry, species assumed): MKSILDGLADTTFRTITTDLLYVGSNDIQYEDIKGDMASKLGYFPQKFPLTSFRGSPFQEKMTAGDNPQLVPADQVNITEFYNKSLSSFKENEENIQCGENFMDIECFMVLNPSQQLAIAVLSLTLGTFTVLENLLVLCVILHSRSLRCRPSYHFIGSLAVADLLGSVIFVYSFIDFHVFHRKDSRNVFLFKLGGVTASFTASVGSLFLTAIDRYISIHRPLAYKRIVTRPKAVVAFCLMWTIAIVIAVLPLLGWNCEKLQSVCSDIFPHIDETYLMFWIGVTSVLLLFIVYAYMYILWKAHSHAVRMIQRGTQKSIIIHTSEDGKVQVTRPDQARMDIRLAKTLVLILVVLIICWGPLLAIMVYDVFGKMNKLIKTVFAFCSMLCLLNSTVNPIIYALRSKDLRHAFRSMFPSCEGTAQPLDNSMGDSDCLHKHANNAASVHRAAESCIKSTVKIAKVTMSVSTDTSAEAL

For `CCCCCC(C)(C)c1ccc([C@H]2CCC[C@@H](O)C2)c(O)c1` (relative stereo) [cp 47,497-C6-homolog, cis-5-(1,1 dimethylhexyl)-2-(3-hydroxycyclohexyl)-phenol], the “long term storage stability” value [1] is listed as “stable for at least two years”, the “affinity for CB2” value [2] is listed as “has affinity” and the “affinity for CB1” value [3] is listed as “has affinity”. For the same compound, the “solubility in DMF” value ([4]; DMF) was “approximately 10 mg/ml”, the “solubility in DMSO” value ([4]; DMSO) was ~15 mg/mL (≈ 49.3 mM) and the “solubility in aqueous solutions” value ([4]; aqueous solutions) was “sparingly soluble”. For the same compound, the solubility in ethanol ([4]; ethanol) was “approximately 10 mg/ml” and the solubility in methanol ([4]; methanol) was “approximately 12.5 mg/ml”.

In the case of `OCC(O)CO` [Vegetable glycerin, glycerol], the “LD50 oral rat dosage converted per pound” value ([5]; conversion of the rat oral LD50) is listed as “approximately 5.7 grams per pound of body weight”, the “LD50 oral rat dosage converted for a 180 pound male” value ([5]; for a 180 pound male) is listed as 36 ounces and the “LD50 oral rat dosage” value ([6]; MSDS) is listed as 12,600 milligrams per kilogram of body weight.

For `CCO` [ethyl (grain) alcohol], the “acute oral toxicity (LD50) in rats” value ([6]; rat) is given as “about 7060 mg/kg”.

In the case of `C=CC(=C)CCC=C(C)C` [myrcene, beta-myrcene], the “half-life in air, reaction with nitrate radicals” value ([7]; nitrate radicals) is given as 4 min, the “half-life in air, reaction with ozone” value ([7]; ozone) is given as 34 min and the “half-life in air, reaction with hydroxyl radicals” value ([7]; photochemically-produced hydroxyl radicals) is given as 108 min.
